Test system: non-replicating cultures of M. tuberculosis H37Rv transformed with lux ABCDE
Test: microbe, parasite or virus in culture
Assay type: cell-based, Mycobacterium tuberculosis
Conditions: for MIC: Mycobacterium tuberculosis, H37RV, ≥90% reduction in luminescence, read-out: MIC90 LORA; for MIC90 LORA/MABA: ratio of LORA MIC90 to MABA MIC90

Structure (SMILES)	MIC90 LORA Rel to RMP	MIC [µM]	MIC90 LORA/MABA
CO[C@H]1/C=C/O[C@@]2(C)Oc3c(C)c(O)c4c(=O)c(c5oc6cccc(OCCCCN7CCOCC7)c6nc-5c4c3C2=O)NC(=O)/C(C)=C\C=C\[C@H](C)[C@H](O)[C@@H](C)[C@@H](O)[C@@H](C)[C@H](OC(C)=O)[C@@H]1C [Compound 5b, (7S,9E,11S,12R,13S,14R,15R,16R,17S,18S,19E,21Z)-2,15,17-Trihydroxy-11-methoxy-3,7,12,14,16,18,22-heptamethyl-32-[4-(morpholin-4-yl)butoxy]-6,23,37-trioxo-8,27,38-trioxa-24,34-diazahexacyclo[23.11.1.1^4,7.0^5,36.0^26,35.0^28,33]octatriaconta-1(36)2,4,9,19,21,25,28(33)29,31,34-undecaen-13-yl acetate]	0.15	0.05	2.4
CO[C@H]1/C=C/O[C@@]2(C)Oc3c(C)c(O)c4c(=O)c(c5oc6cc(N7CCN(C)CC7)cc(OCCCCN7CCN(C(=O)Cn8ccnc8)CC7)c6nc-5c4c3C2=O)NC(=O)/C(C)=C\C=C\[C@H](C)[C@H](O)[C@@H](C)[C@@H](O)[C@@H](C)[C@H](OC(C)=O)[C@@H]1C [Compound 6c, (7S,9E,11S,12R,13S,14R,15R,16R,17S,18S,19E,21Z)-2,15,17-Trihydroxy-32-(4-{4-[2-(1H-imidazol-1-yl)acetyl]piperazin-1-yl}butoxy)-11-methoxy-3,7,12,14,16,18,22-heptamethyl-30-(4-methylpiperazin-1-yl)-6,23,37-trioxo-8,27,38-trioxa-24,34-diazahexacyclo[23.11.1.1^4,7.0^5,36.0^26,35.0^28,33]octatriaconta-1(36)2,4,9,19,21,25,28(33)29,31,34-undecaen-13-yl acetate]	0.14	0.021	0.5
CO[C@H]1/C=C/O[C@@]2(C)Oc3c(C)c(O)c4c(=O)c(c5oc6cccc(OCc7cccc(CN8CCN(C(=O)Cn9ccnc9)CC8)c7)c6nc-5c4c3C2=O)NC(=O)/C(C)=C\C=C\[C@H](C)[C@H](O)[C@@H](C)[C@@H](O)[C@@H](C)[C@H](OC(C)=O)[C@@H]1C [Compound 11e, (7S,9E,11S,12R,13S,14R,15R,16R,17S,18S,19E,21Z)-2,15,17-Trihydroxy-32-{[3-({4-[2-(1H-imidazol-1-yl)acetyl]piperazin-1-yl}methyl)phenyl]methoxy}-11-methoxy-3,7,12,14,16,18,22-heptamethyl-6,23,37-trioxo-8,27,38-trioxa-24,34-diazahexacyclo[23.11.1.1^4,7.0^5,36.0^26,35.0^28,33]octatriaconta-1(36)2,4,9,19,21,25,28,30,32,34-undecaen-13-yl acetate]	0.26	0.078	1.6
CO[C@H]1/C=C/O[C@@]2(C)Oc3c(C)c(O)c4c(=O)c(c5oc6cc(N7CCN(CC(C)C)CC7)cc(OCCCCN7CCOCC7)c6nc-5c4c3C2=O)NC(=O)/C(C)=C\C=C\[C@H](C)[C@H](O)[C@@H](C)[C@@H](O)[C@@H](C)[C@H](OC(C)=O)[C@@H]1C [Compound 6a, (7S,9E,11S,12R,13S,14R,15R,16R,17S,18S,19E,21Z)-2,15,17-Trihydroxy-11-methoxy-3,7,12,14,16,18,22-heptamethyl-30-[4-(2-methylpropyl)piperazin-1-yl]-32-[4-(morpholin-4-yl)butoxy]-6,23,37-trioxo-8,27,38-trioxa-24,34-diazahexacyclo[23.11.1.1^4,7.0^5,36.0^26,35.0^28,33]octatriaconta-1(36)2,4,9,19,21,25,28(33)29,31,34-undecaen-13-yl acetate]	0.07	0.186	2.0

Source: patent publication US20250188092A1, “RIFAMYCIN ANALOGS” (THE REGENTS OF THE UNIVERSITY OF MICHIGAN, priority 2021, published 2025)
